The values that follow come from patent US20120142722A1, “CONJUGATES OF CYTOTOXIC DRUGS” (priority 2009, published 2012).

Each structure is given as a SMILES string. Where “and” joins values, the source holds several entries; their conditions need not be identical. Equal values may be shown once. Entries after “also recorded” stand apart in the source; their conditions may differ. Read-outs that look alike come from different tables or passages of the source.

One series relates to A375-melanoma cells. Kind of series: In vitro cytotoxicity, XTT tetrazolium dye reduction cell viability assay. In kind it is cell-based. Particulars: Homo sapiens. For orientation: Formazan colour is commonly taken as a measure of viable cells.
The test system of the next series is A375 melanoma tumors. Kind of series: Tumor growth inhibition in subcutaneous A375 melanoma xenograft. It is filed as in vivo, athymic nude mice.
The nature of series [1]: Maximal tolerated dose in healthy nude mice. As to conditions: female, athymic (nu/nu), mouse, in vivo, iv; i.v. on 5 consecutive days; determined 24 hr after the last dose; no lethality and body weight loss <20%. The method, then:
Increasing doses of ATT-11E were tested on nude mice for their effect on body weight. Healthy female athymic (nu/nu) mice (6-8 weeks) (Harlan Inc., Jerusalem, Israel) were used for determination of maximum tolerable dose (MTD). MTD was defined as the maximum dose that caused no drug-related lethality and that produced animal body weight loss of <20% of original weight. ATT-11E was dissolved in phosphate buffer (pH 7.4) containing 10% DMSO and 30% cremophor and administered by i.v. injection. ATT-11E was administered on 5 consecutive days. Body weight of mice was monitored daily and MTD was determined 24 hr post last dose.

Series [2] in a line: White blood cell count in A375 tumor bearing mice. It is filed as in vivo. Particulars: ATT-1 3 doses of 30 mg/kg, CCNU 6 doses of 15 mg/kg; tested 1 and 4 days post last dose. As for the experimental part:
Repeated doses of ATT-1 (3 doses of 30 mg/kg) and CCNU (6 doses of 15 mg/kg) were administered to A375 tumor bearing mice and WBC was tested (at AML, Herzelia, Israel) 1 and 4 days post last dose.

For series [3] the following is noted: mouse, in vivo.
Where [4] appears, read: A-375, 48 h, read-out: IC50 (inhibitory concentration of 50% of cells).
Where [5] appears, read: female, beagle, dog, in vivo, iv, 6 mg/kg.

In general, % inhibition refers to the drop in the measured response relative to a control, in per cent. What is called MTD is the largest dose that counted as tolerated. A higher MTD goes with better tolerability. As to `CCOC(=O)C(C)(CCC1CCN(C(=O)Oc2ccc3nc4c(c(CC)c3c2)Cn2c-4cc3c(c2=O)COC(=O)C3(O)CC)CC1)C(=O)OCC` (stereo not shown) [ATT-11E], the IC50 was 0.6 µM in the series with A375-melanoma cells (A-375, 24 h) and 0.6 µM with A375-melanoma cells (setting [4]). The “% inhibition” value with A375 melanoma tumors (mouse, in vivo, 1 mg/kg) is recorded as 54%; in the series with A375 melanoma tumors (mouse, in vivo, 2.5 mg/kg) it was 65%; in the series with A375 melanoma tumors (mouse, in vivo, 5 mg/kg), 72%; in the series on A375 melanoma tumors (mouse, in vivo, 20 mg/kg) it was 88%; in the series on A375 melanoma tumors (mouse, in vivo, 30 mg/kg), 93%. In addition, the T/C was 0.46 and 0.62 with A375 melanoma tumors (mouse, in vivo, 1 mg/kg); 0.35 with A375 melanoma tumors (mouse, in vivo, 2.5 mg/kg); 0.41 in the series with A375 melanoma tumors (mouse, in vivo, 3 mg/kg); 0.28 in the series on A375 melanoma tumors (mouse, in vivo, 5 mg/kg); 0.39 with A375 melanoma tumors (mouse, in vivo, 9 mg/kg); 0.07 with A375 melanoma tumors (mouse, in vivo, 30 mg/kg). This compound also displayed a T/C with A375 melanoma tumors (mouse, in vivo, 40 mg/kg) of 0.1. The “Tumor volume growth inhibition (TVI)” value in the series with A375 melanoma tumors (mouse, in vivo, 20 mg/kg) came to 97%; in the series on A375 melanoma tumors (mouse, in vivo, 40 mg/kg) it was 90%. In series [1], the MTD at 5 days was more than 40 mg/kg.

On to `CCOC(=O)C(C)(CCC1CCC(NC(=O)N(CCCl)N=O)CC1)C(=O)OCC` (stereo not shown) [ATT-5E], for which, in the series with A375-melanoma cells (setting [4]), the IC50 is 130 µM.

With `CCc1c2c(nc3ccc(OC(=O)N4CCC(N5CCCCC5)CC4)cc13)-c1cc3c(c(=O)n1C2)COC(=O)[C@]3(O)CC` [CPT-11, Irinotecan, reference compound], the IC50 in the series with A375-melanoma cells (A-375, 24 h, A375 cells, Example 10, incubated for 24 hr, XTT, read-out: IC50) was determined as 44 µM; in the series with A375-melanoma cells (A-375, 24 h, A375 cells, Example 15 / FIG. 14, 24 hours of incubation, read-out: IC50), 9 µM. In addition, the “Tumor growth delay after the last dose (in words)” value in the series with A375 melanoma tumors (i.v., ATT-11TBE 20 mg/kg 3 times a week (9 doses), CPT-11 75 mg/kg once a week for three weeks, 22 days after the last dose) was “never reached the complete tumor regression”. Moreover, where the note is “6 mg/kg intravenous, beagle dogs, 24 hours”, the “Plasma level of derived SN-38 at 24 hours after administration (in words)” value is on record as “below detection level”.

Consider `CCCCCC(CCC1CCC(NC(=O)N(CCCl)N=O)CC1)(C(=O)O)C(=O)O` (stereo not shown) [ATT-1], for which the IC50 with A375-melanoma cells (setting [4]) turned out to be 545 µM. In the series on A375 melanoma tumors (mouse, in vivo), the T/C is on record as 0.24; the “T/C, ratio of tumor volume of treated compared to control” value is given as 0.33; the “T/C, tumor volume treated compared to control” value came to 0.52; the Tumor growth inhibition was 48% and 76%. The “Tumor growth inhibition compared with control” value in the series on A375 melanoma tumors (mouse, in vivo) was 77% and 73%. Also, the “Reduction of WBC compared to the control” value in series [2] is reported as 27%. Further, the Weight loss in series [3] is reported as 14%.

`O=NN(CCCl)C(=O)NC1CCCCC1` [CCNU, Chloroethylcyclo-hexylnitrosourea, reference compound]: the IC50 in the series on A375-melanoma cells (A-375, 48 h, A375 cells, 48 hours of incubation, XTT, read-out: IC50 (inhibitory concentration of 50% of cells)) turned out to be 200 µM. Besides, the “T/C, tumor volume treated compared to control” value in the series on A375 melanoma tumors (equal total dose: ATT-1 3 doses of 30 mg/kg, CCNU 6 doses of 15 mg/kg, day 23) stood at 0.47. The same compound came in with a Tumor growth inhibition in the series on A375 melanoma tumors (equi-molar doses: ATT-1 3×30 mg/kg, CCNU 3×15 mg/kg) of 48%. The compound also displayed a T/C with A375 melanoma tumors (equi-molar doses: ATT-1 3×30 mg/kg, CCNU 3×15 mg/kg, day 30) of 0.56. Also, in series [2], the “Reduction of WBC compared to the control” value is 89%. In series [3], the Weight loss stood at 19%.

`CCc1c2c(nc3ccc(OC(=O)N4CCC(CCC(C)(C(=O)OC(C)(C)C)C(=O)OC(C)(C)C)CC4)cc13)-c1cc3c(c(=O)n1C2)COC(=O)C3(O)CC` (stereo not shown) [ATT-11TBE]: the IC50 in the series on A375-melanoma cells (A-375, 24 h) was 0.8 µM. For the same compound, the “Tumor growth delay after the last dose (in words)” value with A375 melanoma tumors (mouse, in vivo) is reported as “complete tumor regression; also recorded: substantially inhibited tumor growth, even 22 days after the last dose”. The “Tumor volume growth inhibition (TVI)” value in the series with A375 melanoma tumors (mouse, in vivo, 5 mg/kg) turned out to be 97%. Besides, the “Tumor volume growth inhibition (TVI)” value in the series on A375 melanoma tumors (mouse, in vivo, 20 mg/kg) amounted to 100%. In addition, the “Plasma level of derived SN-38 at 24 hours after administration (in words)” value (dog, in vivo) is recorded as “still detectable”. Under setting [5], the “AUC of metabolite SN-38, fold larger than SN-38 derived from CPT-11” value was 3.6 fold and the “Plasma half-life (t1/2) of metabolite SN-38, fold longer than SN-38 derived from CPT-11” value was 3.1 fold.
